# Results: the supplement of paper PMC10307832
# Tests used:
# Assay in all cases: relative viability (nuclei count vs DMSO), 5 days (fraction); higher = more cells survive
# BAM7 + Palbociclib = compound: CCOC1=CC=CC=C1N=NC2=C(NN(C2=O)C3=NC(=CS3)C4=CC=CC=C4)C [BAM7] + CC(=O)c1c(C)c2cnc(Nc3ccc(N4CCNCC4)cn3)nc2n(C2CCCC2)c1=O [Palbociclib] (partner 0.5 µM)
# In short: (§1)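 Lung cancer cell lines, seeded in 1536-well plates, were treated the following day by pin tool with a single drug or with five library-drug doses (not always all listed) in √10 steps on top of a fixed anchor-drug dose. Cells were fixed and nuclei stained in one step after 5 days, and nuclei were counted. Relative viability is the nuclei count for treated wells divided by that for vehicle wells, reported as medians of duplicate plates.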
# BAM7 + OSI-027 = compound: CCOC1=CC=CC=C1N=NC2=C(NN(C2=O)C3=NC(=CS3)C4=CC=CC=C4)C [BAM7] + COc1cccc2cc(-c3nc([C@H]4CC[C@H](C(=O)O)CC4)n4ncnc(N)c34)[nH]c12 [OSI-027] (partner 0.5 µM)
# In short: as §1
# BAM7 + Phenformin = compound: CCOC1=CC=CC=C1N=NC2=C(NN(C2=O)C3=NC(=CS3)C4=CC=CC=C4)C [BAM7] + N=C(N)NC(=N)NCCc1ccccc1 [Phenformin] (partner 250 µM)
# In short: as §1
# [1] = compound: CCn1c(-c2nonc2N)nc2c(C#CC(C)(C)O)ncc(OC[C@H]3CCCNC3)c21 + N=C(N)NC(=N)NCCc1ccccc1 [Phenformin] (partner 250 µM)
# In short: as §1
cell line,measurement,setting,value
PC-3 [JPC-3],relative viability,BAM7 + Palbociclib; first compound 0.5 µM,0.49
same,relative viability,BAM7 + Palbociclib; first compound 5 µM,0.533
same,relative viability,BAM7 + Palbociclib; first compound 15.81 µM,0.462
same,relative viability,BAM7 + Palbociclib; first compound 50 µM,0.531
same,relative viability,BAM7 + OSI-027; first compound 0.5 µM,0.668
same,relative viability,BAM7 + OSI-027; first compound 5 µM,0.698
same,relative viability,BAM7 + OSI-027; first compound 15.81 µM,0.698
same,relative viability,BAM7 + OSI-027; first compound 50 µM,0.668
same,relative viability,BAM7 + Phenformin; first compound 0.5 µM,0.447
same,relative viability,BAM7 + Phenformin; first compound 5 µM,0.491
same,relative viability,BAM7 + Phenformin; first compound 15.81 µM,0.458
same,relative viability,BAM7 + Phenformin; first compound 50 µM,0.439
same,relative viability,[1]; first compound 0.01 µM,0.504
same,relative viability,[1]; first compound 0.03162 µM,0.451
same,relative viability,[1]; first compound 0.1 µM,0.469
same,relative viability,[1]; first compound 0.3162 µM,0.463
same,relative viability,[1]; first compound 1 µM,0.474
